Experimental findings from PMC6155662, “Trypanocidal Activity of Quinoxaline 1,4 Di-N-oxide Derivatives as Trypanothione Reductase Inhibitors” (Molecules : A Journal of Synthetic Chemistry and Natural …, 2017) are described below.

Read-outs that look alike come from different tables or passages of the source.

For orientation: CC50 means the concentration at which the toxic effect on the cells reaches its halfway point. The low end stands for harm at low concentration, the high end for better tolerance by the cells. As usually defined, the IC50 is the point on the concentration scale where inhibition reaches its midpoint. Broadly, the Ki is a measure of affinity in units of concentration, obtained from inhibition or displacement. As a reminder, the inhibition is the share of the control response that was lost under treatment.

Data set [1] in a line: Cytotoxicity assay (Alamar Blue) on macrophages. Format: cell-based, murine. The settings on record: mouse, J774A.1 macrophages, mean and SD of triplicate. Here is the method:
The murine macrophage cell line J774.A1 was maintained in culture flasks with RPMI 1640 medium supplemented with 10% FBS, 1% MEM-NEAA medium (Gibco) and 100 U/mL antibiotic-antifungal mixture (Gibco). Cells were incubated at 37 °C with 5% CO2 and humidity. Trypsinized J774.A1 macrophages were washed and viability was assessed by the trypan blue dye (Sigma-Aldrich, Toluca, Edo de Mexico, Mexico) exclusion assay. In a 96-well microplate, 50,000 macrophages were seeded per well and a dose-response assay was performed. Compounds were evaluated using six-fold serial dilutions ranging from 100 µg/mL to 0.3 µg/mL of final concentration. Each compound was tested in triplicate. After 20 h incubation, Alamar Blue was added (10% v/v) and cells were incubated for an additional 4 h period. Results were obtained as previously described and CC50 was calculated. As a negative control of cytotoxicity, cells were incubated only in the presence of 0.1% DMSO [39, 40].
A general note: Alamar Blue is a resazurin reagent that responds to reducing activity.

The target of data set [2] is T1, recombinant human glutathione reductase (GR) (Homo sapiens, UniProt P00390).
T1 sequence (P00390 44-522): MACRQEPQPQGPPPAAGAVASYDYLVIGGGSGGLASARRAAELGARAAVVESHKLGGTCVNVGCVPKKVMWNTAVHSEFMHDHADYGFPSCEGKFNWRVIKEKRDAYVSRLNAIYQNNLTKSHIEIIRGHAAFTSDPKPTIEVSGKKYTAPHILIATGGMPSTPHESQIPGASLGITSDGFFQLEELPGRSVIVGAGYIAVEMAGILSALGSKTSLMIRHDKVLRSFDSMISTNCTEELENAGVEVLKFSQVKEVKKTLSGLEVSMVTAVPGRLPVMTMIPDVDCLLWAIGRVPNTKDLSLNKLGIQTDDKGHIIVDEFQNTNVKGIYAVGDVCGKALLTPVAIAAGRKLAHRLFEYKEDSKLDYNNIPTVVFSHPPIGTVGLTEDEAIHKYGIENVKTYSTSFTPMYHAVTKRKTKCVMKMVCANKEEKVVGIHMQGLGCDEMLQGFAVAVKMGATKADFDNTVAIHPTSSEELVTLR
Nature of the data set: GR enzyme inhibition (NADPH consumption at 340 nm). The settings on record: inhibitor 5-60 μM; 100 µM GSSG; read-out: IC50 against hGR. Type of data set: biochemical. Here is the method: (§1) Trypanothione disulfide (TS2) and recombinant T. cruzi TR were prepared following published procedures. Recombinant human glutathione reductase (GR) was kindly provided by Dr. Heiner Schirmer, Heidelberg Germany. Stock solutions (5 mM) of the inhibitors were prepared in DMSO. The kinetic analyses were conducted using a Jasco V650 spectrophotometer. All enzymatic tests were performed in polystyrene optical cuvettes (10 × 4 × 45 mm). TR activity was measured at 25 °C in a total volume of 1 mL TR assay buffer (40 mM HEPES, 1 mM EDTA, pH 7.5 [47]) containing 100 μM NADPH and 5–10 mU enzyme in the absence and presence of the inhibitor. Each assay contained a total of 5% DMSO. The reaction was started by adding TS2 and NADPH consumption was followed at 340 nm.
GR activity was measured at 25 °C in a total volume of 1 mL GR assay buffer (20.5 mM KH2PO4, 26.5 mM K2HPO4, 200 mM KCl, 1 mM EDTA, pH 6.9). The assays contained 100 µM NADPH and 5–10 mU GR and varying concentrations of the inhibitor. The reaction was started by adding 100 µM GSSG and the absorption decrease was followed at 340 nm.
Five compound concentrations were used ranging from 100–5 μM. […] IC50 values were calculated using the four-parameter equation model 205 and the option “unlock” from the XLfit add-in (IDBS, Guildford, United Kingdom) for Excel (Microsoft Corporation, Redmond, WA, USA).

A further data set deals with T2, recombinant T. cruzi TR (Trypanosoma cruzi, UniProt P28593).
T2 construct: made in house
Nature of the data set: TR enzyme inhibition (NADPH consumption at 340 nm). Type of data set: biochemical. The settings on record: for inhibition at 5 µM: inhibitor 5 µM; for inhibition at 10 µM: inhibitor 10 µM; for inhibition at 20 µM: inhibitor 20 µM; for inhibition at 40 µM: inhibitor 40 µM; for inhibition at 60 µM: inhibitor 60 µM; for inhibition at 80 µM: inhibitor 80 µM, T-085 precipitates in the assay at 80 µM. Here is the method:
as §1
Five compound concentrations were used ranging from 100–5 μM. All measurements were performed twice in three independent series. Enzyme activity was plotted versus increasing inhibitor concentrations. IC50 values were calculated using the four-parameter equation model 205 and the option “unlock” from the XLfit add-in (IDBS, Guildford, United Kingdom) for Excel (Microsoft Corporation, Redmond, WA, USA).
The type of inhibition and the inhibitor constants were derived from Lineweaver-Burk plot. The activity of TR was measured in the absence and presence of two to three constant concentrations of inhibitor varying the concentration of TS2 (20, 40, 60, 100 and 200 µM). The inhibitory constant Ki was calculated from the direct plot using nonlinear least-squares data fitting in Excel spreadsheet.

Data set [3] has as its system T. cruzi INC-5 epimastigotes. Nature of the data set: Viability (MTT) assay on T. cruzi epimastigotes. Format: cell-based, Trypanosoma cruzi. The settings on record: 24 h, mean and SD of triplicate. Here is the method:
In this study, two strains of T. cruzi isolated in Mexico were used. […] Epimastigotes were cultured in vitro in liver infusion-tryptose (LIT) medium supplemented with 10% heat inactivated fetal bovine serum (FBS) (Gibco) and 100 U/mL penicillin-streptomycin (In vitro S.A.), and incubated at 27 °C. CD1 mice, aged 6–8 weeks, were infected with T. cruzi to obtain bloodstream trypomastigote samples.
Viability assays of T. cruzi epimastigotes using 3-(4,5-dimethylthiazol-2-yl)-2,5-diphenyltetrazolium bromide (MTT) were performed. Briefly, the parasites were harvested during the exponential growth phase for a period of five days. In a 96-well microplate 1x10^6 epimastigotes were deposited in brain-heart infusion (BHI) medium supplemented with 10% FBS and 100 U/mL antibiotic-antifungal mixture (Gibco). […] Each well reached a final volume of 100 µL. Each condition was assessed in triplicate. The microplate was incubated for 24 h at 27 °C in darkness. Afterwards, 10 μL of a 5 mg/mL MTT solution was added and the plate was incubated for 20 h at 27 °C. Then 200 μL of 10% dodecyl sulfate (SDS)/0.1% HCl solution was added to dissolve formazan salts; the plate was incubated an additional 4 h. Finally, the plate was read at 570 nm in a spectrophotometer (Multiskan EX Thermo Electron, Taipei, Taiwan). The amount of viable cells was proportional to the amount of formazan produced. […] Later the results were converted to micromolar units. […] As a […] control, parasites were incubated only in culture medium with a 1% DMSO concentration, corresponding to the highest sample dilution of DMSO [34, 35, 36].

Setting [4] is: 40 µM TS2, read-out: % Inhibition of TR at 40 µM [TS2].
The mark [5] stands for this setting: 100 µM TS2, read-out: % Inhibition of TR at 100 µM [TS2].

T2 sequence (P28593 whole entry): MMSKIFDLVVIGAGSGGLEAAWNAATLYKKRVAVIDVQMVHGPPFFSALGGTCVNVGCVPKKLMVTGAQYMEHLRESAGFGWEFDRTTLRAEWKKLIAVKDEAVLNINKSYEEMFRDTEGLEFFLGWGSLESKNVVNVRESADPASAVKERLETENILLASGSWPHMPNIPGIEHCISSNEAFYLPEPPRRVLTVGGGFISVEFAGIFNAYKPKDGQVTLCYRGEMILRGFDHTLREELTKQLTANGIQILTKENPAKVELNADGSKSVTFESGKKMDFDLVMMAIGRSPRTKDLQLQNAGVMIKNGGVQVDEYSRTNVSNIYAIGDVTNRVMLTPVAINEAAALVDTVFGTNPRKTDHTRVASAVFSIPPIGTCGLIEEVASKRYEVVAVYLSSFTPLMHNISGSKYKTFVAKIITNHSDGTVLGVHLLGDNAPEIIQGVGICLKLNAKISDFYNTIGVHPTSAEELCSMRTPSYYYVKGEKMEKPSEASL

In data set [1], `CC(C)OC(=O)c1ccc2c(c1)[n+]([O-])c(C(=O)C(C)C)c(C(F)(F)F)[n+]2[O-]` [Compound T-085, Isopropyl 2-isobutyryl-3-trifluoromethylquinoxaline-7-carboxylate 1,4-di-N-oxide] gave a CC50 at 24 h of 10.4 ± 0.8 µM. Moreover, the IC50 is 50 µM in data set [2]; 50 µM on recombinant T. cruzi TR (inhibitor 5-60 μM, read-out: IC50 against TcTR); 2420 ± 500 nM in data set [3]; less than 2500 nM in data set [3] (Trypanosoma cruzi). The type of inhibition entry on recombinant T. cruzi TR (TcTR, Lineweaver-Burk plot) is reported as “non-competitive inhibitor”. Further, the inhibitory constant (Ki) at recombinant T. cruzi TR (TcTR, Lineweaver-Burk plot, inhibitor 15 and 50 µM, TS2 20-200 µM) is 35 µM. The inhibition at 5 µM at recombinant T. cruzi TR (setting [4]) came to 20.3%; at recombinant T. cruzi TR (setting [5]) it was 15.2%. Also, the inhibition at 10 µM at recombinant T. cruzi TR (setting [4]) was 34.1%; at recombinant T. cruzi TR (setting [5]) it was 24.7%. The inhibition at 20 µM on recombinant T. cruzi TR (setting [4]) was determined as 45.7%; at recombinant T. cruzi TR (setting [5]) it was 36.1%. Besides, the inhibition at 40 µM on recombinant T. cruzi TR (setting [4]) was 55.1%; on recombinant T. cruzi TR (setting [5]), 48.1%. The inhibition at 60 µM on recombinant T. cruzi TR (the highest concentration that could be measured, 100 μM or 40 μM TS2, read-out: % inhibition of TR) amounted to 60%; at recombinant T. cruzi TR (setting [4]), 60.9%; on recombinant T. cruzi TR (setting [5]), 60.1%. In addition, the inhibition at 80 µM turned out to be 44% on recombinant T. cruzi TR (setting [4]) and 33% at recombinant T. cruzi TR (setting [5]).
